Assay results as given in ChEMBL document CHEMBL2074374, “The nuclear receptor PXR is a lithocholic acid sensor that protects against liver toxicity” (Proc Natl Acad Sci U S A, 2001).

Biological target: T1, Solute carrier organic anion transporter family member 1A4 (Mus musculus, UniProt Q9EP96)
T1 sequence (Q9EP96 whole entry): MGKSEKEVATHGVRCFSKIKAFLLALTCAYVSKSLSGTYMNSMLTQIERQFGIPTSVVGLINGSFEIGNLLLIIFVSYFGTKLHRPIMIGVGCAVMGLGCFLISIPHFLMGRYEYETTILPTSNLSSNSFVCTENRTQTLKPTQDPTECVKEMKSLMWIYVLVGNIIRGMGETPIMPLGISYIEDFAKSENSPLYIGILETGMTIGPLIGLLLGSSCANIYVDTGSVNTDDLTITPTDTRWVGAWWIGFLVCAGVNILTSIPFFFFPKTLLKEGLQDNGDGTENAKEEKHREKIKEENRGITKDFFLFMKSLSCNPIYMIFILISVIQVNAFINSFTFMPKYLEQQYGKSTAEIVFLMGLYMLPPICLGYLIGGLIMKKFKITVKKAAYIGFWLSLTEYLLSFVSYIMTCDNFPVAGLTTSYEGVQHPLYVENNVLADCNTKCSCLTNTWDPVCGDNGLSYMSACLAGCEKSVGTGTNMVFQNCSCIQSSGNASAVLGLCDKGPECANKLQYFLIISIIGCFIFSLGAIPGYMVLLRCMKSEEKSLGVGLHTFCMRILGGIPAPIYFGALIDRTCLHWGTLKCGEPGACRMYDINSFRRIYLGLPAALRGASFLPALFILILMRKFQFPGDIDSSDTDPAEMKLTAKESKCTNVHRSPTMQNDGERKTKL
Experiment: TP_TRANSPORTER: Northern blot in vivo, liver of PXR+/+ mouse
Assay type: functional, organism-based

SMILES	Activity
CC(=O)[C@H]1[C@H](C#N)C[C@H]2[C@@H]3CC=C4C[C@@H](O)CC[C@]4(C)[C@H]3CC[C@@]21C [PREGNENOLONE CARBONITRILE]	inducer [+]
C[C@H](CCC(=O)O)[C@H]1CC[C@H]2[C@@H]3CC[C@@H]4C[C@H](O)CC[C@]4(C)[C@H]3CC[C@]12C [LITHOCHOLIC ACID]	inducer [+]
